How the values were obtained:
[1] = system: sulfonylurea herbicide-resistant Lindernia procumbens (Krock.) Philcox; assay: Paddy pot weeding test, flooded, two-leaf stage (Test Example 1); type: in vivo; details: 1 g/are, three weeks after treatment, resistant biotype, Tajiri Town, Miyagi Pref.
Description: (§1) A 5 cm×5 cm Jiffy Pot™ was charged with paddy soil, then water was introduced into each pot, seeds of sulfonylurea herbicide-sensitive Scirpus juncoides var. ohwianus, sulfonylurea herbicide-sensitive Lindernia procumbens (Krock.) Philcox, sulfonylurea herbicide-sensitive Lindernia dubia subsp. major Pennell, sulfonylurea herbicide-resistant Scirpus juncoides var. ohwianus, sulfonylurea herbicide-resistant Lindernia procumbens (Krock.) Philcox and sulfonylurea herbicide-resistant Lindernia dubia subsp. major Pennell were sowed therein and cultivated for a prescribed period under flooding conditions. When the plants reached the two-leave stage, the prescribed number of Jiffy Pots where the plants had been grown were transferred to a 150-cm^2 rectangular plastic pot, and water was introduced to a height of 3 cm, and a chemical diluent containing a compound was applied into the pot in an amount of 1 g/are. The chemical diluent was prepared by dissolving 1.5 g compound in 2 L of N,N-dimethylformamide (DMF) containing, 2% (W/V) surfactant Tween™ 20 and then diluting it with water to adjust the total volume to 10 L.

[2] = system: sulfonylurea herbicide-sensitive Scirpus juncoides var. ohwianus; assay: as above; type: in vivo; details: 1 g/are, three weeks after treatment, sensitive biotype, Kyoto Pref.
Description: as §1

[3] = system: sulfonylurea herbicide-resistant Scirpus juncoides var. ohwianus; assay: as above; type: in vivo; details: 1 g/are, three weeks after treatment, resistant biotype, Iwamisawa City, Hokkaido
Description: as §1

[4] = system: sulfonylurea herbicide-resistant Lindernia dubia subsp. major Pennell; assay: as above; type: in vivo; details: 1 g/are, three weeks after treatment, resistant biotype, Kawanishi Town, Yamagata Pref.
Description: as §1

[5] = system: sulfonylurea herbicide-sensitive Lindernia dubia subsp. major Pennell; assay: as above; type: in vivo; details: 1 g/are, three weeks after treatment, sensitive biotype, Makabe Town, Ibaraki Pref.
Description: as §1

[6] = system: sulfonylurea herbicide-sensitive Lindernia procumbens (Krock.) Philcox; assay: as above; type: in vivo; details: 1 g/are, three weeks after treatment, sensitive biotype, Kyoto Pref.
Description: as §1

SMILES | R Lindernia procumbens (Krock.) Philcox (effect index) [1] | S Scirpus juncoides var. ohwianus (effect index) [2] | R Scirpus juncoides var. ohwianus (effect index) [3] | R Lindernia dubia subsp. major Pennell (effect index) [4] | S Lindernia dubia subsp. major Pennell (effect index) [5] | S Lindernia procumbens (Krock.) Philcox (effect index) [6] | melting point
CCCCc1ccc2nc(Cl)c(S(=O)(=O)NC(=O)Nc3nc(OC)cc(OC)n3)n2n1 [Compound No. 41] | 4 (high 61 to 80) | 5 (excellent 81 to 100) | 5 (excellent 81 to 100) | 5 (excellent 81 to 100) | 5 (excellent 81 to 100) | 5 (excellent 81 to 100) | 
COc1cc(OC)nc(NC(=O)NS(=O)(=O)c2c(Cl)nc3ccc(C4CC4)nn23)n1 [Compound No. 44] |  | 5 (excellent 81 to 100) | 4 (high 61 to 80) | 5 (excellent 81 to 100) | 5 (excellent 81 to 100) | 5 (excellent 81 to 100) | 
CCOc1ccc2nc(C(F)(F)F)c(NC(=O)NS(=O)(=O)c3nc(OC)cc(OC)n3)n2n1 [Compound No. 10] |  |  |  |  |  |  | 169 to 171 °C
CCSc1ccc2nc(Cl)c(NC(=O)NS(=O)(=O)c3nc(OC)cc(OC)n3)n2n1 [Compound No. 25] |  | 5 (excellent 81 to 100) | 5 (excellent 81 to 100) | 4 (high 61 to 80) | 5 (excellent 81 to 100) | 5 (excellent 81 to 100) | 180 to 182 °C
COc1cc(OC)nc(S(=O)(=O)NC(=O)Nc2c(C)nc3ccc(S(C)(=O)=O)nn23)n1 [Compound No. 21] |  |  |  |  |  |  | 246 to 248 °C (dec.)
COc1cc(OC)nc(NC(=O)NS(=O)(=O)c2c(Cl)nc3cccnn23)n1 [comparison 2, reference compound] | 0 (none 0) | 5 (excellent 81 to 100) | 0 (none 0) | 0 (none 0) | 5 (excellent 81 to 100) | 5 (excellent 81 to 100) | 
COc1cc(OC)nc(NC(=O)NS(=O)(=O)c2c(Cl)nc3ccc(C(C)C)nn23)n1 [Compound No. 40] | 5 (excellent 81 to 100) | 5 (excellent 81 to 100) | 5 (excellent 81 to 100) | 5 (excellent 81 to 100) | 5 (excellent 81 to 100) | 5 (excellent 81 to 100) | 
COc1cc(OC)nc(NC(=O)NS(=O)(=O)c2c(C)nc3ccc(C(C)C)nn23)n1 [Compound No. 39] | 5 (excellent 81 to 100) | 5 (excellent 81 to 100) | 5 (excellent 81 to 100) | 5 (excellent 81 to 100) | 5 (excellent 81 to 100) | 5 (excellent 81 to 100) | 
COc1cc(OC)nc(S(=O)(=O)NC(=O)Nc2c(C)nc3c(C)cc(N(C)C)nn23)n1 [Compound No. 15] |  |  |  |  |  |  | 266 to 268 °C (dec.)
CCSc1ccc2nc(C(F)(F)F)c(NC(=O)NS(=O)(=O)c3nc(OC)cc(OC)n3)n2n1 [Compound No. 11] |  | 5 (excellent 81 to 100) | 5 (excellent 81 to 100) | 5 (excellent 81 to 100) | 5 (excellent 81 to 100) | 5 (excellent 81 to 100) | 179 to 180 °C
CCOc1ccc2nc(Cl)c(NC(=O)NS(=O)(=O)c3nc(OC)cc(OC)n3)n2n1 [Compound No. 23] |  | 5 (excellent 81 to 100) | 5 (excellent 81 to 100) | 4 (high 61 to 80) | 5 (excellent 81 to 100) | 5 (excellent 81 to 100) | 168 to 169 °C
COc1cc(OC)nc(S(=O)(=O)NC(=O)Nc2c(C)nc3ccc(OC)nn23)n1 [Compound No. 17] |  |  |  |  |  |  | 241 °C
CCCc1ccc2nc(F)c(S(=O)(=O)NC(=O)Nc3nc(OC)cc(OC)n3)n2n1 [Compound No. 46] |  | 5 (excellent 81 to 100) | 5 (excellent 81 to 100) | 5 (excellent 81 to 100) | 5 (excellent 81 to 100) | 5 (excellent 81 to 100) | 
CCc1nc2ccc(C)nn2c1NC(=O)NS(=O)(=O)c1nc(OC)cc(OC)n1 [Compound No. 1] |  |  |  |  |  |  | 182 to 184 °C
CCc1nc2ccc(OC)nn2c1NC(=O)NS(=O)(=O)c1nc(OC)cc(OC)n1 [Compound No. 6] |  |  |  |  |  |  | 118 to 123 °C (dec.)
CCCc1nc2ccc(SC)nn2c1S(=O)(=O)NC(=O)Nc1nc(OC)cc(OC)n1 [Compound No. 31] |  | 5 (excellent 81 to 100) | 5 (excellent 81 to 100) | 4 (high 61 to 80) | 5 (excellent 81 to 100) | 5 (excellent 81 to 100) | 
CCOc1ccn2nc(C)c(NC(=O)NS(=O)(=O)c3nc(OC)cc(OC)n3)c2n1 [compound 34] |  | 4 (high 61 to 80) | 4 (high 61 to 80) | 5 (excellent 81 to 100) |  | 5 (excellent 81 to 100) | 
C/C=C/c1ccc2nc(Cl)c(S(=O)(=O)NC(=O)Nc3nc(OC)cc(OC)n3)n2n1 [Compound No. 45] |  | 5 (excellent 81 to 100) | 4 (high 61 to 80) | 5 (excellent 81 to 100) | 5 (excellent 81 to 100) | 5 (excellent 81 to 100) | 
C=Cc1ccc2nc(Cl)c(S(=O)(=O)NC(=O)Nc3nc(OC)cc(OC)n3)n2n1 [Compound No. 43] |  | 5 (excellent 81 to 100) | 4 (high 61 to 80) | 5 (excellent 81 to 100) | 5 (excellent 81 to 100) | 5 (excellent 81 to 100) | 
COc1cc(C)nc(S(=O)(=O)NC(=O)Nc2c(Cl)nc3ccc(SC)nn23)n1 [Compound No. 27] |  |  |  |  |  |  | 172 to 174 °C
CCc1nc2ccc(Cl)nn2c1NC(=O)NS(=O)(=O)c1nc(OC)cc(OC)n1 [Compound No. 2] |  |  |  |  |  |  | 174 to 175 °C
COc1cc(OC)nc(S(=O)(=O)NC(=O)Nc2c(C)nc3c(C)cc(SC)nn23)n1 [Compound No. 20] |  |  |  |  |  |  | 191 to 193 °C (dec.)
COc1cc(OC)nc(S(=O)(=O)NC(=O)Nc2c(Cl)nc3ccc(N(C)C)nn23)n1 [Compound No. 22] |  |  |  |  |  |  | 193 to 195 °C
CCOc1ccc2nc(CC)c(NC(=O)NS(=O)(=O)c3nc(OC)cc(OC)n3)n2n1 [Compound No. 5] |  |  |  |  |  |  | 180 to 181 °C
